Values after ≈ are worked out from the molar mass of the structure shown. Where two headings read alike, the source gives them in different places.
What was measured:
[1] = system: Staphylococcus aureus Smith; test: MIC against the infecting strain (Table 2); format: cell-based; conditions: Staphylococcus aureus Smith; read-out: MIC
Experimental: (§1) The minimum inhibitory concentration (MIC) of the compound (I) was determined by an agar dilution technique (the standard method of Japan Society of Chemotherapy) against standard strains of gram-positive and gram-negative bacteria.

E. coli ML4707 = test: MIC against the infecting strain (Table 2); format: cell-based; conditions: Escherichia coli; E. coli ML4707; read-out: MIC
Experimental: as §1

[2] = system: gram-positive and gram-negative bacteria; test: In vitro antibacterial activity against gram-positive and gram-negative bacteria (in words); format: cell-based; conditions: versus nalidixic acid and pipemidic acid
Experimental: as §1

[3] = system: Alcaligenes faecalis 0104002; test: In vitro antibacterial activity (MIC, agar dilution); format: cell-based; conditions: inoculum 10^8 cells/ml
Experimental: as §1
(§2) Inoculum size: 10^8 cells/ml

S. pneumoniae IID552 = test: as above; format: cell-based; conditions: Streptococcus pneumoniae; S. pneumoniae IID552; inoculum 10^8 cells/ml; read-out: MIC
Experimental: as §1, §2

E. coli ATCC10536 = test: as above; format: cell-based; conditions: Escherichia coli; E. coli ATCC10536; inoculum 10^8 cells/ml; read-out: MIC
Experimental: as §1, §2

[4] = system: Pseudomonas aeruginosa V-1; test: as above; format: cell-based; conditions: V1; Pseudomonas aeruginosa V-1; inoculum 10^8 cells/ml; read-out: MIC
Experimental: as §1, §2

Shigella sonnei IID969 = test: as above; format: cell-based; conditions: inoculum 10^8 cells/ml
Experimental: as §1, §2

S. epidermidis IID866 = test: as above; format: cell-based; conditions: Staphylococcus epidermidis, inoculum 10^8 cells/ml
Experimental: as §1, §2

[5] = Tissue levels after a single oral administration in mice (microbiological assay); format: in vivo; conditions: mouse; for concentration at 0.5 h / concentration at 1 h / concentration at 2 h / concentration at 4 h / concentration at 6 h: 50 mg/kg oral
Experimental: Tissue levels of the compound (I) after a single oral administration of 50 mg/kg in mice and rats
Tissue levels of the compound (I) were determined by micro-biological assay which employed the thin layer cup method with Bacillus subtilis ATCC6633 as the test organism. Serum and tissue levels of the compound (I) were calculated with the standard curve prepared in normal serum of the test animal species and M/15 phosphate buffer (pH 7.5), respectively.

[6] = kidney, read-out: Kidney concentration
[7] = liver, read-out: Liver concentration
[8] = lung, read-out: Lung concentration
[9] = serum, read-out: Serum concentration

## CCn1cc(C(=O)O)c(=O)c2cc(F)c(N3CCN(Cc4ccc(N)cc4)CC3)c(F)c21 [compound (I), 7-[4-(p-aminobenzyl)-1-piperazinyl]-1-ethyl-6,8-difluoro-1,4-dihydro-4-oxoquinoline-3-carboxylic acid]
[1]
  MIC: 0.05 µg/mL (≈ 0.113 µM)
E. coli ML4707
  MIC: 0.39 µg/mL (≈ 0.881 µM)
[2]
  Antibacterial activity against gram-positive and gram-negative bacteria, in words: more active than nalidixic acid and pipemidic acid
[3]
  MIC: 3.13 µg/mL (≈ 7.07 µM)
S. pneumoniae IID552
  MIC: 0.39 µg/mL (≈ 0.881 µM)
E. coli ATCC10536
  MIC: 0.39 µg/mL (≈ 0.881 µM)
[4]
  MIC: 12.5 µg/mL (≈ 28.3 µM)
Shigella sonnei IID969
  MIC: 0.39 µg/mL (≈ 0.881 µM)
S. epidermidis IID866
  MIC: 0.2 µg/mL (≈ 0.452 µM)
[5]; [6]
  concentration at 0.5 h: 13000 ng/mL
  concentration at 1 h: 13000 ng/mL
  concentration at 2 h: 7800 ng/mL
  concentration at 4 h: 4600 ng/mL
  concentration at 6 h: 4600 ng/mL
[5]; [7]
  concentration at 0.5 h: 22500 ng/mL
  concentration at 1 h: 17500 ng/mL
  concentration at 2 h: 12000 ng/mL
  concentration at 4 h: 9000 ng/mL
  concentration at 6 h: 5800 ng/mL
[5]; [8]
  concentration at 0.5 h: 12800 ng/mL
  concentration at 1 h: 9500 ng/mL
  concentration at 2 h: 5500 ng/mL
  concentration at 4 h: 4300 ng/mL
  concentration at 6 h: 2800 ng/mL
[5]; [9]
  concentration at 0.5 h: 8600 ng/mL
  concentration at 1 h: 6500 ng/mL
  concentration at 2 h: 5000 ng/mL
  concentration at 4 h: 2700 ng/mL
  concentration at 6 h: 1800 ng/mL
[5]; serum, mice, single oral 50 mg/kg, read-out: Peak serum level
  Cmax: 8600 ng/mL
